Key:
membrane lipids = experiment: Iron-induced peroxidation of membrane lipids (cis-parinaric acid fluorescent probe) in human heart homogenates; assay type: biochemical; conditions: for iron-induced damages of the membrane components (in words): in vitro system, summary; for peroxidation of membrane lipids (in words): FIG. 1A, iron form added to heart homogenate
Procedure: (§1) Human heart homogenates were used as an in vitro model to mimic the action of iron on mitochondrial ISPs and to test the potentially protective effect of various substances.
(§2) These homogenates were prepared under low iron-chelating conditions using the procedures described in Rustin P. et al., Biochemical and molecular investigations in respiratory chain deficiencies, Clin. Chim. Acta., 228, 35-51 (1994). Briefly, homogenate from frozen human heart was obtained surgically and prepared at ice-melting temperature in a 0.1 M Tris-HCI buffer (pH 7.3) by five strokes of hand-driven ground glass potter using the procedures described in Sanchez-Casis et al., Pathology of the heart in Friedreich's ataxia: review of the literature and report of one case, Can. J. Neurol. Sci., 3, 349-354 (1977). After filtering through a 90 μm nylon net, homogenate was sampled and frozen at -80° C. for enzyme studies.
(§3) The endogenous antioxidant defenses of heart mitochondria were neutralized by simple dilution, and free access of iron to its specific targets was achieved by freeze-thaw disrupting mitochondrial membranes.
Lipoperoxidation, a marker of non-specific peroxidative damages caused to membrane components, was monitored in the presence of either reduced or oxidized iron. Cis-parinaric acid (c-PN) was used as a fluorescent probe for lipoperoxidation (15,16). Measurements were performed in a 37° C. thermostated quartz cell, magnetically stirred, and containing 2 ml 0.1 M Tris-HCI buffer (pH 7.3) using a LS540B Spectrofluorimeter (Perkin-Elmer, England). Excitation: 318 nm; 5 nm band-pass Emission: 410 nm; 5 nm band-pass.
(§4) Lipids peroxidation, complex II activity, and aconitase activity were monitored according to the methods of example 1 above.

aconitases = experiment: Aconitase activity (aconitate accumulation at 240 nm in the presence of citrate) in human heart homogenate; assay type: biochemical; conditions: for Iron-induced damages to: Aconitases: 5 nM Fe^2+ + 2 nM EDTA + 6 U of the one enzyme
Procedure: as §1, §2, §3
(§5) The activities of two enzymes specifically targeted in FRDA, namely membrane-bound respiratory chain complex II and soluble (mitochondrial plus cytosolic) aconitases, were monitored under either low or high iron chelating conditions, in the presence of either reduced or oxidized iron. Complex II activity was measured on freeze-thaw heart homogenate as the dichlorophenolindophenol quinone reductase (DCPIP) (14). Aconitase activity in heart homogenate, corresponding to the combined mitochondrial and cytosolic enzyme activities, was measured by following the aconitate accumulation at 240 nm in the presence of citrate (6). All measurements were performed using a DW2000 Aminco Spectrophotometer (SLM, USA) in a 37° C. thermostated quartz cell, magnetically stirred, and containing 2 ml 0.1 M Tris-HCI buffer (pH 7.3).
as §4
Aconitase was assayed after additional 3 min incubation with 250 μM desferrixamine. Trace b: Aconitase activity measured after 6 min incubation in Tris-HCI buffer containing 250 μM desferrioxamine in the absence of Fe^2+.

FRDA patients = experiment: Idebenone administration in FRDA patients: cardiac hypertrophy and cerebellar ataxia; assay type: in vivo, human
Procedure: Based on the previous in vitro data and owing to the innocuousness of the drug, five children ranging in age from 71/2 to 14 years and two young adults, all diagnosed with FDRA, were given idebenone orally (5 mg/kg/day).
The results observed after a course of treatment ranging from about 4 to about 9 months of administration at this dosage, are shown in FIG. 3:
A) Follow up of heart ultrasound parameters in patients 1, 6 and 7. LV: left ventricle. Note the decreased septal and left ventricle posterior wall thickness;
B) changes in cerebellar ataxia noted by parents and uninformed teachers. ®: Unchanged; : decrease; 0: No initial involvement.

complex II = experiment: Complex II activity (succinate quinone DCPIP reductase) in freeze-thaw human heart homogenate; assay type: biochemical; conditions: for protection of complex II from iron induced damages (in words): succinate alone or 60 μM oxidized idebenone alone, FIG. 2C traces a, b
Procedure: as §1, §2, §3, §5, §4

[1] = quinone reduced in situ by the respiratory chain (succinate)
[2] = idebenone orally 5 mg/kg/day, about 4 to about 9 months
[3] = noted by the parents and uninformed teachers
[4] = 5 nM Fe^2+ + 50 μM quinone, no succinate
[5] = 5 nM Fe^2+ + 10 mM succinate + 50 μM quinone

With O=C1O[C@H]([C@@H](O)CO)C(O)=C1O [ascorbate] the “iron-induced damages of the membrane components (in words)” value (“iron-induced damages … (in words)” for short) (membrane lipids) was “enhancing these damages”.

With CC(=O)N(O)CCCCCNC(=O)CCC(=O)N(O)CCCCCNC(=O)CCC(=O)N(O)CCCCCN [desferrioxamine] the “decrease in aconitase activity (in words)” value (aconitases; 200 μM desferrioxamine alone, 6 min pre-incubation, no Fe^2+, FIG. 2D trace b) was “no decrease in enzyme activity”, the “loss of aconitase activity” value (aconitases; 250 μM desferrioxamine + 5 nM reduced iron, FIG. 1C trace d) was 80% and the “inhibition of aconitase activity (in words)” value (aconitases; desferrioxamine in the absence of iron, FIG. 1C trace c) was “No inhibition of aconitase activity”. For the same molecule, the “Iron-induced damages to: Lipids” value (membrane lipids; 5 nM Fe^2+ + 120 μM desferrioxamine) was 0 ± 1%.

For N[C@@H](CCC(=O)N[C@@H](CS)C(=O)NCC(=O)O)C(=O)O [glutathione], the “iron-induced damages … (in words)” value (membrane lipids) was “enhancing these damages”.

COC1=C(OC)C(=O)C(CCCCCCCCCCO)=C(C)C1=O [idebenone, 6-(10-hydroxydecyl)-2,3-dimethoxy-5-methyl-1,4-benzoquinone] was tested, and the “prevention of the loss of aconitase activity induced by water-soluble chelators in the presence of reduced iron (in words)” value (aconitases; Table 2) was “neither succinate nor idebenone nor succinate+idebenone prevents the loss of aconitase activity”, the “Iron-induced damages to: Lipids” value (membrane lipids; 5 nM Fe^2+ + 60 μM idebenone, no succinate) was -63 ± 4% and the “Iron-induced damages to: Lipids” value (membrane lipids; 5 nM Fe^2+ + 10 mM succinate + 60 μM idebenone) was -1 ± 0.4%. For the same molecule, the “protection against iron-induced lipoperoxidation (in words)” value (membrane lipids; 60 μM oxidized idebenone, 3 min, no succinate, FIG. 2A trace a) was “No protection”, the “protection against iron-induced lipoperoxidation (in words)” value (membrane lipids; idebenone reduced in situ by succinate (about 2 μM reduced), FIG. 2A trace b) was “significant protection” and the “protection against iron-induced lipoperoxidation (in words)” value (membrane lipids; longer incubation with succinate (12 μM reduced; 20% of total idebenone), FIG. 2A trace c) was “enhanced”. The “protection of membrane lipids against iron injury (in words)” value (membrane lipids; [1]) was “efficiently protected”, the “myocardial hypertrophy (in words)” value (FRDA patients; 4 to 9 month regime, five FRDA patients) was “significant decrease” and the “deep tendon reflexes (in words)” value (FRDA patients; after a 9 month course) was “have not reappeared”. The “improvement of asynergia/dysmetria (finger-nose test) (patients improved/total)” value (FRDA patients; [2]) was 3/5, the “improvement of delicate movements (handwriting) (patients improved/total)” value (FRDA patients; [2]) was 4/5 and the “improvement of gait ataxia (patients improved/total)” value (FRDA patients; [2]) was 2/5. The “improvement of muscle strength (patients improved/total)” value (FRDA patients; [2]) was 5/5, the “general condition (in words)” value (FRDA patients; [3]) was “improvement” and the “hand clumsiness (in words)” value (FRDA patients; [3]) was “decrease”. The “decrease of left ventricle mass index” value (FRDA patients; ultrasound, three patients) was -21 to -32%, the “reduction of left ventricle wall” value (FRDA patients; ultrasound, three patients) was -8 to -20% and the “reduction of septal thickness” value (FRDA patients; ultrasound, three patients) was -31 to -36%. For the same molecule, the “protection of membrane-anchored complex II against iron injury (in words)” value (complex II; [1]) was “efficiently protected”, the “protection of complex II from iron induced damages (in words)” value (complex II) was “did not protect complex II” and the “protection of complex II activity (in words)” value (complex II; succinate and 60 μM idebenone added simultaneously (20% of idebenone reduced), FIG. 2C trace c) was “full protection”.

For O=C(O)CN(CCN(CC(=O)O)CC(=O)O)CC(=O)O [EDTA], the “Iron-induced damages to: Lipids” value (membrane lipids; 5 nM Fe^2+ + 2 nM EDTA) was -2 ± 1% and the “protection of complex II activity (in words)” value (complex II; 1 nM EDTA added to the iron-supplemented (5 nM reduced iron) medium, FIG. 1B trace b) was “fully protected”.

“SOD: superoxide dismutase, water-soluble antioxidant enzyme” was tested, and the “Iron-induced damages to: Aconitases” value (aconitases) was -75 ± 1% and the “iron-induced damages … (in words)” value (membrane lipids) was “unable to prevent”.

With COC1=C(OC)C(=O)C(CC=C(C)CCC=C(C)CCC=C(C)CCC=C(C)CCC=C(C)CCC=C(C)CCC=C(C)CCC=C(C)CCC=C(C)CCC=C(C)C)=C(C)C1=O [CoQ10] the “decrease of aconitase activity” value (aconitases; 3 min with 5 nM Fe^2+ + 8 μM CoQ10 without succinate, then 3 min 250 μM desferrioxamine, FIG. 2D trace c) was 77%, the “Iron-induced damages to: Lipids” value (membrane lipids; [4]) was -66 ± 2% and the “Iron-induced damages to: Lipids” value (membrane lipids; [5]) was -1 ± 0.4%. For the same molecule, the “protection against iron-induced lipoperoxidation (in words)” value (membrane lipids; 8 μM CoQ10 reduced in situ by 3 min incubation with 10 mM succinate, FIG. 2B trace b) was “full protection” and the “protection against iron-induced lipoperoxidation (in words)” value (membrane lipids; 8 μM oxidized CoQ10, absence of succinate, FIG. 2B trace a) was “did not protect from iron-induced lipoperoxidation”.

COC1=C(OC)C(=O)C(CC=C(C)CCC=C(C)CCC=C(C)CCC=C(C)C)=C(C)C1=O [CoQ4] was tested, and the “Iron-induced damages to: Lipids” value (membrane lipids; [4]) was -74 ± 3% and the “Iron-induced damages to: Lipids” value (membrane lipids; [5]) was -1 ± 1%.

For ferrous chloride [Fe^2+], the “aconitase activity (in words)” value (aconitases; 10 min incubation with 5 nM reduced iron, FIG. 1C trace b) was “not affected”, the “peroxidation of membrane lipids (in words)” value (membrane lipids; listed as Reduced iron) was “triggered an immediate peroxidation of the membrane lipid” and the “peroxidation of membrane lipids (in words)” value (membrane lipids; listed as reduced iron) was “rapid lipoperoxidation”. The “activity of complex II (in words)” value (complex II; 1 min incubation with 5 nM reduced iron, FIG. 1B trace c) was “strongly affected”.

For O=C(O)CCC(=O)O [succinate], the “Iron-induced damages to: Lipids” value (membrane lipids; 5 nM Fe^2+ + 10 mM succinate) was -58 ± 3%, the “protection of membrane lipids against iron-induced peroxidation (in words)” value (membrane lipids; succinate alone) was “failed to protect” and the “protection of complex II from iron induced damages (in words)” value (complex II) was “did not protect complex II”.

In the case of ferric chloride [Fe^3+], the “peroxidation of membrane lipids (in words)” value (membrane lipids) is reported as “no damage was observed” and the “peroxidation of membrane lipids (in words)” value (membrane lipids; listed as oxidized iron) is reported as “did not significantly after membrane lipids”.

B1: catalase: water-soluble antioxidant enzyme (protein, UniProt P04040 2-527, looked up)
Catalase: ADSRDPASDQMQHWKEQRAAQKADVLTTGAGNPVGDKLNVITVGPRGPLLVQDVVFTDEMAHFDRERIPERVVHAKGAGAFGYFEVTHDITKYSKAKVFEHIGKKTPIAVRFSTVAGESGSADTVRDPRGFAVKFYTEDGNWDLVGNNTPIFFIRDPILFPSFIHSQKRNPQTHLKDPDMVWDFWSLRPESLHQVSFLFSDRGIPDGHRHMNGYGSHTFKLVNANGEAVYCKFHYKTDQGIKNLSVEDAARLSQEDPDYGIRDLFNAIATGKYPSWTFYIQVMTFNQAETFPFNPFDLTKVWPHKDYPLIPVGKLVLNRNPVNYFAEVEQIAFDPSNMPPGIEASPDKMLQGRLFAYPDTHRHRLGPNYLHIPVNCPYRARVANYQRDGPMCMQDNQGGAPNYYPNSFGAPEQQPSALEHSIQYSGEVRRFNTANDDNVTQVRAFYVNVLNEEQRKRLCENIAGHLKDAQIFIQKKAVKNFTEVHPDYGSHIQALLDKYNAEKPKNAIHTFVQSGSHLAAREKANL
With B1 the “Iron-induced damages to: Aconitases” value (aconitases) was -46 ± 2% and the “iron-induced damages … (in words)” value (membrane lipids) was “unable to prevent”.

— US6133322A, “Quinone derivatives for treating or preventing diseases associated with iron overload” (Institut National de la Sante et de la Recherche Medicale …, priority 1998, dated 2000)
